Assays:
Assay in all cases: radiometric filter-binding kinase assay
[1] = molecular target: AURKA (human) (UniProt O14965); conditions: compound 0.1 µM
[2] = molecular target: MARK3 (human) (UniProt P27448)
[3] = molecular target: BTK (human) (UniProt Q06187)
[4] = molecular target: SRPK1 (human) (UniProt Q96SB4)
[5] = molecular target: NEK2 (human) (UniProt P51955)
[6] = molecular target: NTRK1 (human) (UniProt P04629); conditions: compound 0.1 µM
[7] = molecular target: INSR (human) (UniProt P06213)
Chain of INSR (human) (P06213 whole entry, looked up): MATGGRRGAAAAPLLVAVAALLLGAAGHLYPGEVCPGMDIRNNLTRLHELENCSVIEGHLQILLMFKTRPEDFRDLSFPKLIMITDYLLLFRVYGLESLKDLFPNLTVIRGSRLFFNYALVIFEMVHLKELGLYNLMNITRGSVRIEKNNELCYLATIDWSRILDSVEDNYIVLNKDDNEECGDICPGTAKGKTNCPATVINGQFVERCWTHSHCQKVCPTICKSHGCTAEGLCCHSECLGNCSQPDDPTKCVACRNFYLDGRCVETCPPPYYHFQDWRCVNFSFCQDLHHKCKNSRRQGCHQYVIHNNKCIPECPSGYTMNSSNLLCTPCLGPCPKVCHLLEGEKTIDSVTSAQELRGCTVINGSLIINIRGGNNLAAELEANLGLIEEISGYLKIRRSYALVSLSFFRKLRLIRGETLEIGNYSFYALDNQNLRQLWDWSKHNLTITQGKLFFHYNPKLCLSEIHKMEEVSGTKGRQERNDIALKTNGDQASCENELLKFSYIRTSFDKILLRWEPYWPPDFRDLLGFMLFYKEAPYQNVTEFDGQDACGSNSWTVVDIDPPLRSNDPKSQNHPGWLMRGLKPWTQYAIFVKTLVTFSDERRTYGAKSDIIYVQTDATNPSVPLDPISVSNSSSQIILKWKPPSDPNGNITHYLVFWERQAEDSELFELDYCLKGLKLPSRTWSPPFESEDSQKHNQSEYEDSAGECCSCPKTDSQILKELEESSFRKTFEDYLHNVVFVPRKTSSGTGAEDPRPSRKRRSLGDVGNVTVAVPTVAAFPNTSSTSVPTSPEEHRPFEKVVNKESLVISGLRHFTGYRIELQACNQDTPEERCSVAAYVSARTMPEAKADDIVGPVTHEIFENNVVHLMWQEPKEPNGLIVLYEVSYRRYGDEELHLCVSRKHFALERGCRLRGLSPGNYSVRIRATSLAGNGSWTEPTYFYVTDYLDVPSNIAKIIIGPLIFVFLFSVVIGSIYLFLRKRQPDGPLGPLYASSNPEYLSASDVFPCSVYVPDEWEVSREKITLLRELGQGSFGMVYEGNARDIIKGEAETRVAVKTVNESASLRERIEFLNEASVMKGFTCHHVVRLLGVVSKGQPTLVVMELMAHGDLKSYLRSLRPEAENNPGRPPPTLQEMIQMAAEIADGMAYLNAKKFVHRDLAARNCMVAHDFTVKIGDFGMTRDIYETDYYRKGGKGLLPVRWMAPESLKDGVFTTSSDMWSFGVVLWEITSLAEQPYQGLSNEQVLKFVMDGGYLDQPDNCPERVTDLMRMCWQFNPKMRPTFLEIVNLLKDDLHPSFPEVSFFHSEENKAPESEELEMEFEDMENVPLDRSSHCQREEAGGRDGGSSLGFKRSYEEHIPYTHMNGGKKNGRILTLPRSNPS

[8] = molecular target: MAPK11 (human) (UniProt Q15759)
Chain of MAPK11 (human) (Q15759 whole entry, looked up): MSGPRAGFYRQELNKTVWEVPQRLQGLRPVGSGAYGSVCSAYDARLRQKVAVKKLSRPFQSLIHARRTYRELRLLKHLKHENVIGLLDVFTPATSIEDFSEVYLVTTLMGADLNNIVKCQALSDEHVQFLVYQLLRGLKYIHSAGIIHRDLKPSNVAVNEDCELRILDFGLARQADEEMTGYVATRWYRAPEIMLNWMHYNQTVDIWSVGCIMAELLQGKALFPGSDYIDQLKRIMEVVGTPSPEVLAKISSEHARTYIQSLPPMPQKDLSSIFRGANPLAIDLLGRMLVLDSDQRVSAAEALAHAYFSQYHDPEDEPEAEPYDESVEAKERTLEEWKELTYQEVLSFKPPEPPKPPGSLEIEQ

[9] = molecular target: MARK4 (human) (UniProt Q96L34); conditions: compound 0.1 µM
[10] = molecular target: HIPK1 (human) (UniProt Q86Z02); conditions: compound 0.1 µM
[11] = molecular target: MKNK2 (human) (UniProt Q9HBH9)
[12] = molecular target: MAP3K1 (human) (UniProt Q13233); conditions: compound 0.1 µM
[13] = system: AKT2 (human), P31751 [S474D]
[14] = molecular target: IRAK4 (human) (UniProt Q9NWZ3)
[15] = molecular target: DYRK2 (human) (UniProt Q92630)
[16] = molecular target: JAK2 JH1 JH2 (human) (UniProt O60674); conditions: compound 0.1 µM
[17] = molecular target: MAPK15 (human) (UniProt Q8TD08)
[18] = molecular target: CSNK1D (human) (UniProt P48730)
Chain of CSNK1D (human) (P48730 whole entry, looked up): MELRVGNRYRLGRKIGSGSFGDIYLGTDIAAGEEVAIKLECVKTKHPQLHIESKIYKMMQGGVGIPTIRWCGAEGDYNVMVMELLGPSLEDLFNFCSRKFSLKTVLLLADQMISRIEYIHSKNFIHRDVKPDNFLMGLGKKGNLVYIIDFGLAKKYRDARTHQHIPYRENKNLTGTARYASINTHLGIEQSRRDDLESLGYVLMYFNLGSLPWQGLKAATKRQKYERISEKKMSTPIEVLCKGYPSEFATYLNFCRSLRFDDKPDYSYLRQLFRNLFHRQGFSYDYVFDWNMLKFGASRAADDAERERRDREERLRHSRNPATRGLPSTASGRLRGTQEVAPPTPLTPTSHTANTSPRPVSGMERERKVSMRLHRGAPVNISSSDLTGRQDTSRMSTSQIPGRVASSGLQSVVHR

[19] = molecular target: MAPK14 (human) (UniProt Q16539)
Chain of MAPK14 (human) (Q16539 whole entry, looked up): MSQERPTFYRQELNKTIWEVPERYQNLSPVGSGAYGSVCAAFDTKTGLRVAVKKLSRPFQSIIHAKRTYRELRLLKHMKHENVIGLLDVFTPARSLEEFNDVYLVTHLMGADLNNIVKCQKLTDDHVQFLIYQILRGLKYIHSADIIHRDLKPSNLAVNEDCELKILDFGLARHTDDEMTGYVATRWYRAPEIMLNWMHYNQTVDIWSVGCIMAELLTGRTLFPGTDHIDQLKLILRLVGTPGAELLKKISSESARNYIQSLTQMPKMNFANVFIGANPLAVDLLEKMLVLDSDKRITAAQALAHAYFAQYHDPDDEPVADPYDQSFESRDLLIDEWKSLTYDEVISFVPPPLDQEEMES

[20] = molecular target: INSRR (human) (UniProt P14616)
[21] = molecular target: NEK6 (human) (UniProt Q9HC98)
[22] = molecular target: FLT1 (human) (UniProt P17948)
Chain of FLT1 (human) (P17948 whole entry, looked up): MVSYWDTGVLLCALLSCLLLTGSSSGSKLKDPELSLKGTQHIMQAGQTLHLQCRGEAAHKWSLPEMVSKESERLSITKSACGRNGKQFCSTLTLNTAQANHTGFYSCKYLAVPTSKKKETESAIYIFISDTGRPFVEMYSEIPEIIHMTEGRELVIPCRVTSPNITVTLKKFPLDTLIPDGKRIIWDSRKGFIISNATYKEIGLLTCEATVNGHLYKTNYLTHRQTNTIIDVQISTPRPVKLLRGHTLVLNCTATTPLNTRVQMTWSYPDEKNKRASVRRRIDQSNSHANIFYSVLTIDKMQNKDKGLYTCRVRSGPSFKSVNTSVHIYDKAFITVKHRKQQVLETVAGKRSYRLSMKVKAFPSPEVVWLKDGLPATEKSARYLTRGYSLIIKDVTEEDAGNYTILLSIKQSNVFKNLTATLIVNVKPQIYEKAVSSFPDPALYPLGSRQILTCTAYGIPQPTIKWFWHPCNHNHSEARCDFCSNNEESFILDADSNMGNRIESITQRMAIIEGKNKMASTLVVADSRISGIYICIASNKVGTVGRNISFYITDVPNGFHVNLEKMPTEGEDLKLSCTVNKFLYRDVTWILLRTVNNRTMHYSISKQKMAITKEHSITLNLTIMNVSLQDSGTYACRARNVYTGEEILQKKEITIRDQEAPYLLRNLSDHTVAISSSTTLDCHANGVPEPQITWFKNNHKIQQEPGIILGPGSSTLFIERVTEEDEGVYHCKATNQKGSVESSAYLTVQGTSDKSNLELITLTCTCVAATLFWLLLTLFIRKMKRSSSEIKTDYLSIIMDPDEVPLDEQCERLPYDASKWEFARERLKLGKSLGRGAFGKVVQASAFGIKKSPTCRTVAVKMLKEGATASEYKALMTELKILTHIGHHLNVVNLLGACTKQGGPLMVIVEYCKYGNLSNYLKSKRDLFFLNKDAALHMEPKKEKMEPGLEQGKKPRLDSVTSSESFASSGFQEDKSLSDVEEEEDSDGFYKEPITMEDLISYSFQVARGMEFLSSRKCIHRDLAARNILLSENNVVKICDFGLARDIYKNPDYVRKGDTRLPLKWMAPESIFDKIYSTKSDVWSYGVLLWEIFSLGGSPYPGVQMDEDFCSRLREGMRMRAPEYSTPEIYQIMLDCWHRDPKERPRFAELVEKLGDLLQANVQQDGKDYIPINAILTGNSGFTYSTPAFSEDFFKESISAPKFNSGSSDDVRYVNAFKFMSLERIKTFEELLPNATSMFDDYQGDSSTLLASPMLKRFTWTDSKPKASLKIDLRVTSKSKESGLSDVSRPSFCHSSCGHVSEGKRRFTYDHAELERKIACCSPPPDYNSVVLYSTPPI

[23] = system: RPS6KB1 (human), P23443 [T412E]
[24] = molecular target: CLK2 (human) (UniProt P49760); conditions: compound 0.1 µM
[25] = molecular target: RPS6KA1 KD1 KD2 (human) (UniProt Q15418)
[26] = molecular target: HIPK2 (human) (UniProt Q9H2X6)
[27] = molecular target: MAP3K9 (human) (UniProt P80192)
Chain of MAP3K9 (human) (P80192 whole entry, looked up): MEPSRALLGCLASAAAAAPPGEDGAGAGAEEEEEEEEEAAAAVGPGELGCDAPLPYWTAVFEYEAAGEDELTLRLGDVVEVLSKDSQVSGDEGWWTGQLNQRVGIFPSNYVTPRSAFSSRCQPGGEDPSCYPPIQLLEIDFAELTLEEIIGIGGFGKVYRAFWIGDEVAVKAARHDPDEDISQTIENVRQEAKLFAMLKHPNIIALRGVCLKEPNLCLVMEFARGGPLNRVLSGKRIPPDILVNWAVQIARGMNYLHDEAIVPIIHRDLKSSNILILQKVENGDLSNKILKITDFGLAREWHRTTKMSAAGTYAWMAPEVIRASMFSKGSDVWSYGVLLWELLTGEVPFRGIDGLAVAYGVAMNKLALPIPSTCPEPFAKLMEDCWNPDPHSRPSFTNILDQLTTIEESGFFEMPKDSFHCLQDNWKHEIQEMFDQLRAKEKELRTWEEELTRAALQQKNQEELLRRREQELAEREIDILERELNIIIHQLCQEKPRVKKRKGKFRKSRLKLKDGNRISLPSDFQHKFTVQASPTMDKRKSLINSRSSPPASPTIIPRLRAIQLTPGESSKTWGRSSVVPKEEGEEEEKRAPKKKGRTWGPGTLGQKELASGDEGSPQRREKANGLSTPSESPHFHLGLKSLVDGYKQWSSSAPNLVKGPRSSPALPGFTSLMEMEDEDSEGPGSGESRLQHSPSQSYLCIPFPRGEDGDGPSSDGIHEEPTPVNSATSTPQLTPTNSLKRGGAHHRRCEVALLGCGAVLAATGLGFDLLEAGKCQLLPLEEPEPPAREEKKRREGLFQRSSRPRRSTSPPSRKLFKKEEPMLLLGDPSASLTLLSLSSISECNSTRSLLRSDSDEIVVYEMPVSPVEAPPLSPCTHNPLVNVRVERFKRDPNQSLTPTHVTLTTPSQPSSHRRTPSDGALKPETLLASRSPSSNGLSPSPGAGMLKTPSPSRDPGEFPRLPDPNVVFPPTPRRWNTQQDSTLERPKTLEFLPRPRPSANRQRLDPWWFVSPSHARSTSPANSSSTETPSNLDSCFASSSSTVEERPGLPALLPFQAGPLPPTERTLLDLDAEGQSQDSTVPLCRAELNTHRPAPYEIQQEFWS

[28] = molecular target: MAPK1 (human) (UniProt P28482)
[29] = molecular target: RIPK2 (human) (UniProt O43353); conditions: compound 0.1 µM
[30] = molecular target: PRKCA (human) (UniProt P17252)
[31] = molecular target: YES1 (human) (UniProt P07947)
[32] = molecular target: STK11 CAB39 STRADA (human) (UniProt Q9Y376+Q7RTN6+Q15831)
[33] = molecular target: RPS6KA5 KD1 KD2 (human) (UniProt O75582)
[34] = molecular target: CSNK2A1 (human) (UniProt P68400)
[35] = molecular target: MAPKAPK3 (human) (UniProt Q16644); conditions: compound 0.1 µM

residual activity [1]: 78%
residual activity ([2]; compound 0.1 µM): 89%
residual activity ([2]; compound 1.0 µM): 60%
residual activity ([2]; compound 10.0 µM): 29%
residual activity ([3]; compound 0.1 µM): 89%
residual activity ([3]; compound 1.0 µM): 96%
residual activity ([4]; compound 0.1 µM): 82%
residual activity ([4]; compound 1.0 µM): 104%
residual activity ([4]; compound 10.0 µM): 50%
residual activity ([5]; compound 0.1 µM): 114%
residual activity ([5]; compound 1.0 µM): 60%
residual activity ([5]; compound 10.0 µM): 27%
residual activity [6]: 29%
residual activity ([7]; compound 0.1 µM): 111%
residual activity ([7]; compound 1.0 µM): 100%
residual activity ([7]; compound 10.0 µM): 68%
residual activity ([8]; compound 0.1 µM): 109%
residual activity ([8]; compound 1.0 µM): 112%
residual activity ([8]; compound 10.0 µM): 71%
residual activity [9]: 110%
residual activity [10]: 99%
residual activity ([11]; compound 0.1 µM): 68%
residual activity ([11]; compound 1.0 µM): 14%
residual activity ([11]; compound 10.0 µM): 4%
residual activity [12]: 92%
residual activity ([13]; compound 0.1 µM): 86%
residual activity ([13]; compound 1.0 µM): 98%
residual activity ([13]; compound 10.0 µM): 74%
residual activity ([14]; compound 0.1 µM): 20%
residual activity ([14]; compound 1.0 µM): 12%
residual activity ([14]; compound 10.0 µM): 12%
residual activity ([15]; compound 0.1 µM): 101%
residual activity ([15]; compound 1.0 µM): 20%
residual activity ([15]; compound 10.0 µM): 2%
residual activity [16]: 24%
residual activity ([18]; compound 0.1 µM): 70%
residual activity ([18]; compound 1.0 µM): 12%
residual activity ([18]; compound 10.0 µM): 3%
residual activity ([19]; compound 0.1 µM): 94%
residual activity ([19]; compound 1.0 µM): 119%
residual activity ([19]; compound 10.0 µM): 106%
residual activity ([20]; compound 0.1 µM): 98%
residual activity ([20]; compound 1.0 µM): 58%
residual activity ([20]; compound 10.0 µM): 26%
residual activity ([21]; compound 0.1 µM): 104%
residual activity ([21]; compound 10.0 µM): 107%
residual activity ([22]; compound 0.1 µM): 98%
residual activity ([22]; compound 1.0 µM): 63%
residual activity ([22]; compound 10.0 µM): 15%
residual activity ([23]; compound 0.1 µM): 100%
residual activity ([23]; compound 1.0 µM): 74%
residual activity ([23]; compound 10.0 µM): 24%
residual activity [24]: 65%
residual activity ([25]; compound 0.1 µM): 102%
residual activity ([25]; compound 1.0 µM): 93%
residual activity ([25]; compound 10.0 µM): 38%
residual activity ([26]; compound 0.1 µM): 70%
residual activity ([26]; compound 1.0 µM): 58%
residual activity ([26]; compound 10.0 µM): 15%
residual activity ([27]; compound 0.1 µM): 87%
residual activity ([27]; compound 1.0 µM): 38%
residual activity ([27]; compound 10.0 µM): 7%
residual activity ([28]; compound 0.1 µM): 100%
residual activity ([28]; compound 1.0 µM): 103%
residual activity ([28]; compound 10.0 µM): 61%
residual activity [29]: 55%
residual activity ([30]; compound 0.1 µM): 100%
residual activity ([30]; compound 1.0 µM): 61%
residual activity ([30]; compound 10.0 µM): 33%
residual activity ([31]; compound 0.1 µM): 105%
residual activity ([31]; compound 1.0 µM): 93%
residual activity ([31]; compound 10.0 µM): 42%
residual activity ([32]; compound 0.1 µM): 86%
residual activity ([32]; compound 1.0 µM): 89%
residual activity ([33]; compound 0.1 µM): 94%
residual activity ([33]; compound 1.0 µM): 103%
residual activity ([33]; compound 10.0 µM): 62%
residual activity ([34]; compound 0.1 µM): 96%
residual activity ([34]; compound 10.0 µM): 46%
residual activity [35]: 101%
SMILES: O=C(O)c1ccc(-c2c[nH]c3ncc(-c4ccccc4)cc23)cc1C1CCCC1
residual activity ([17]; compound 0.1 µM): 23%
residual activity ([17]; compound 1.0 µM): 32%
residual activity ([17]; compound 10.0 µM): 23%
